Measured values: patent publication US9527869B2, “Indolizine derivatives as phoshoinositide 3-kinases inhibitors” (CHIESI FARMACEUTICI S.P.A., priority 2014, dated 2016)

Tests used:
Format in all cases: biochemical
PI3Kα = molecular target: T1, PI3Kα (Homo sapiens, UniProt P42336); test: In vitro determination of the PI3K enzyme inhibitory activity in the cell free assay (ADP-Glo Kinase Assay), PI3Kα; conditions: ATP 50 μM, read-out: PI3K alpha inhibition
T1 construct: purchased Millipore Ltd (Billerica, Mass.)
How it was run: (§1)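 Human recombinant PI3K isoforms with PI/PS lipid substrates (50 μM in 2× buffer, Tris pH 7.5, DTT) were run 60 min at room temperature. Final ATP was 50 μM for α, 100 μM for β, 30 μM for γ and 80 μM for δ. ADP formation was read by ADP-Glo luminescence, and IC50 came from a four-parameter logistic fit.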

PI3Kβ = molecular target: T2, PI3Kβ (Homo sapiens, UniProt P42338); test: In vitro determination of the PI3K enzyme inhibitory activity in the cell free assay (ADP-Glo Kinase Assay), PI3Kβ; conditions: ATP 100 μM, read-out: PI3K beta inhibition
T2 construct: purchased Millipore Ltd (Billerica, Mass.)
How it was run: as §1

PI3Kγ = molecular target: T3, PI3Kγ (Homo sapiens, UniProt P48736); test: In vitro determination of the PI3K enzyme inhibitory activity in the cell free assay (ADP-Glo Kinase Assay), PI3Kγ; conditions: ATP 30 μM, read-out: PI3K gamma inhibition
T3 construct: purchased Millipore Ltd (Billerica, Mass.)
How it was run: as §1

PI3Kδ = molecular target: T4, PI3Kδ (Homo sapiens, UniProt O00329); test: In vitro determination of the PI3K enzyme inhibitory activity in the cell free assay (ADP-Glo Kinase Assay), PI3Kδ; conditions: ATP 80 μM, read-out: PI3K delta inhibition
T4 construct: purchased Millipore Ltd (Billerica, Mass.)
How it was run: as §1

T3 sequence (P48736 whole entry): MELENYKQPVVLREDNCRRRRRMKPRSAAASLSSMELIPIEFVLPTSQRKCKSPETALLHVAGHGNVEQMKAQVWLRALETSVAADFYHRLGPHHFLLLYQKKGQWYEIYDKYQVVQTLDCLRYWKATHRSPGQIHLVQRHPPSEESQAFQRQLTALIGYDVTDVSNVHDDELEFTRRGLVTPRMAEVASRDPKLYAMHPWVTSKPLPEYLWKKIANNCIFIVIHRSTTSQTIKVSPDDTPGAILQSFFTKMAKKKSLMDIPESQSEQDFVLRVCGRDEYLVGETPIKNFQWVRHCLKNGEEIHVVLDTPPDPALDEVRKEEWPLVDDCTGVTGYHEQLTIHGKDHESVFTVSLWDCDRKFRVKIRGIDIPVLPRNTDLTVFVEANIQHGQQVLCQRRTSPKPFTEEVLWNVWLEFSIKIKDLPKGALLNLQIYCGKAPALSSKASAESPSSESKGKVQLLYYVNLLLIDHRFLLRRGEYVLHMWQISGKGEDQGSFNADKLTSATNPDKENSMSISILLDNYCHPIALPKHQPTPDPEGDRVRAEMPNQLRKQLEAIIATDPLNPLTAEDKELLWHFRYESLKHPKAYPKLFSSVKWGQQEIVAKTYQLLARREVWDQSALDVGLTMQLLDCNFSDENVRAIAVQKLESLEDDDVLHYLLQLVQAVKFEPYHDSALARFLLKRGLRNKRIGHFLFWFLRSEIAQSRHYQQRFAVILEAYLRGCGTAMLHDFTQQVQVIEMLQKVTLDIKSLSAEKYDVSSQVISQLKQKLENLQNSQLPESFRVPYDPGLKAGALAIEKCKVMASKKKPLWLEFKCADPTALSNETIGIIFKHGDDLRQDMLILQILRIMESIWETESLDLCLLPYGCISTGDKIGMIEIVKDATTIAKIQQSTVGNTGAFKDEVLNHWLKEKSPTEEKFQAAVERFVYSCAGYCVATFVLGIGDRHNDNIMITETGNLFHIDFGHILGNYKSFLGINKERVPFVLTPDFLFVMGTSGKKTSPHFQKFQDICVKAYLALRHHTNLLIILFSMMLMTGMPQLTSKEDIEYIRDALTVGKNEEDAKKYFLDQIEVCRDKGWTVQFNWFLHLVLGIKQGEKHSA
T1 sequence (P42336 whole entry): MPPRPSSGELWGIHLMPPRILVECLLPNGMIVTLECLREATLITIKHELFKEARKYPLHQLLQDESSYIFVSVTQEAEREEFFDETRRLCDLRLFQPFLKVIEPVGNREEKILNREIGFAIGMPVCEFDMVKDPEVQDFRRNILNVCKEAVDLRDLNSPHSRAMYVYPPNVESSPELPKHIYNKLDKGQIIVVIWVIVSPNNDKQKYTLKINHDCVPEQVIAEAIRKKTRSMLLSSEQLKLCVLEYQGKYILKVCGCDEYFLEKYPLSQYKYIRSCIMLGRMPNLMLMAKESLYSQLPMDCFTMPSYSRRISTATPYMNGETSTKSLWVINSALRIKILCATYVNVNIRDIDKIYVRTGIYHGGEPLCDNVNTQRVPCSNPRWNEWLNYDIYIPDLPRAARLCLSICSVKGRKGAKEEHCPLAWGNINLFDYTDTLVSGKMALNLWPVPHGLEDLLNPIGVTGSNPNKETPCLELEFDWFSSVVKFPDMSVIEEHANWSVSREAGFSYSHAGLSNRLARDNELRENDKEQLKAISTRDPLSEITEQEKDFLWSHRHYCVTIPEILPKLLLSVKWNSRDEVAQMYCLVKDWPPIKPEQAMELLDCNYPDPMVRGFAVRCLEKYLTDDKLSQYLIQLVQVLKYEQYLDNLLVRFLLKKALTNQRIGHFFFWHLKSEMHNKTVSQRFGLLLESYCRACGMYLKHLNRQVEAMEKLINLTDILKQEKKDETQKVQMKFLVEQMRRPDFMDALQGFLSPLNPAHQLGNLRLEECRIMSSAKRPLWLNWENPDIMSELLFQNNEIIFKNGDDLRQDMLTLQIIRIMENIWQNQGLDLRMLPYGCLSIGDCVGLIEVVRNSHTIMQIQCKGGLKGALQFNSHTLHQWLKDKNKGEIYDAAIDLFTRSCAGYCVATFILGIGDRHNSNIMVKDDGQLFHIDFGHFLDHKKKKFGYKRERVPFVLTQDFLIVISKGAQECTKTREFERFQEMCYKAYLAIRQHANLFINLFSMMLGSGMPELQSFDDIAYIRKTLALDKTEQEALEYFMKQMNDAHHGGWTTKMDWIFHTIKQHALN
T1 sequence (P27986 whole entry partner): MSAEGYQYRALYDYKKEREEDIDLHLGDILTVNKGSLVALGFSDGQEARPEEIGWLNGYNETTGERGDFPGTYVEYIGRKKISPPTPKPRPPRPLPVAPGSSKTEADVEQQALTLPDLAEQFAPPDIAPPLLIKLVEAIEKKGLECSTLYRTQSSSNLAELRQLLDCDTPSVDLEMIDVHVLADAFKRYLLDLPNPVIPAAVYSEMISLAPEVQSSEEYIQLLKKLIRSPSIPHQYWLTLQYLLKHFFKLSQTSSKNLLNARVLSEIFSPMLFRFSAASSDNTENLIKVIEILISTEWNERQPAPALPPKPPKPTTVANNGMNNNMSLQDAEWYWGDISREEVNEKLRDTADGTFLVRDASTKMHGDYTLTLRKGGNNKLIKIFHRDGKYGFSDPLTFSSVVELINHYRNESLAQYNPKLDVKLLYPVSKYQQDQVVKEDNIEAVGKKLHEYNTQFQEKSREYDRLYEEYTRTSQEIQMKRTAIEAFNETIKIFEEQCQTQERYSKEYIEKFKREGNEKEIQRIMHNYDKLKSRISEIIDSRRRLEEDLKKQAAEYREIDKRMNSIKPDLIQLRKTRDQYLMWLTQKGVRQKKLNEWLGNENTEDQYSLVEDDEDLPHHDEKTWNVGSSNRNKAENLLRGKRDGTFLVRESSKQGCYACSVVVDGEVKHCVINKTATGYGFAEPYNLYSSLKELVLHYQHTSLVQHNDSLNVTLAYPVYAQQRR
T2 sequence (P42338 whole entry): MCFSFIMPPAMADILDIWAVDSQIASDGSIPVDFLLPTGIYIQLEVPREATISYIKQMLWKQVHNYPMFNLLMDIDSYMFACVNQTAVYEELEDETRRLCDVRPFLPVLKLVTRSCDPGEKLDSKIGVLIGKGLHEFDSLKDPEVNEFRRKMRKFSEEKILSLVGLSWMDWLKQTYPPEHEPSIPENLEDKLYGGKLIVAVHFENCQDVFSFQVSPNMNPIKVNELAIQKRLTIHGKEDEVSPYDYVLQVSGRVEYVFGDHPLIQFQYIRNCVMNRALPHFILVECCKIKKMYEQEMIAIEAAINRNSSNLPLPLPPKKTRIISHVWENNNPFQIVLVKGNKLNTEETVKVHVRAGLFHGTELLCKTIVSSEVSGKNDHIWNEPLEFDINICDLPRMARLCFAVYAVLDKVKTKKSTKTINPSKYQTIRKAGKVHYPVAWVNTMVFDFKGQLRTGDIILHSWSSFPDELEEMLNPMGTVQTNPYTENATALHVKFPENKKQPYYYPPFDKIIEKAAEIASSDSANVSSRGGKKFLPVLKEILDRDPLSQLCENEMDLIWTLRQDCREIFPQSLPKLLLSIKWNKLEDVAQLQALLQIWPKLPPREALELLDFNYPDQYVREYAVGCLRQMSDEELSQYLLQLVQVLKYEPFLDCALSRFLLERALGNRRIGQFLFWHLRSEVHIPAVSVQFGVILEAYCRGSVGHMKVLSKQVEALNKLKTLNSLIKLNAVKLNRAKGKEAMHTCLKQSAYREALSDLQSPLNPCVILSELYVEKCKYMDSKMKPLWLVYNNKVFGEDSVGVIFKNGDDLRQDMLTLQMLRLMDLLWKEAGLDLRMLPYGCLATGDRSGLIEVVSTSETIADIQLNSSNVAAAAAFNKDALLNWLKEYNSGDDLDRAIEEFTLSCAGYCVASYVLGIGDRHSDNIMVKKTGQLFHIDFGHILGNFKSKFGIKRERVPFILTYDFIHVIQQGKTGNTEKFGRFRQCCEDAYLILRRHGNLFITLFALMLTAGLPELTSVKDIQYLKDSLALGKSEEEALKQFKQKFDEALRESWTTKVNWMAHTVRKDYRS
T2 sequence (P27986 whole entry partner): as the sequence (P27986 whole entry partner) above
T4 sequence (O00329 whole entry): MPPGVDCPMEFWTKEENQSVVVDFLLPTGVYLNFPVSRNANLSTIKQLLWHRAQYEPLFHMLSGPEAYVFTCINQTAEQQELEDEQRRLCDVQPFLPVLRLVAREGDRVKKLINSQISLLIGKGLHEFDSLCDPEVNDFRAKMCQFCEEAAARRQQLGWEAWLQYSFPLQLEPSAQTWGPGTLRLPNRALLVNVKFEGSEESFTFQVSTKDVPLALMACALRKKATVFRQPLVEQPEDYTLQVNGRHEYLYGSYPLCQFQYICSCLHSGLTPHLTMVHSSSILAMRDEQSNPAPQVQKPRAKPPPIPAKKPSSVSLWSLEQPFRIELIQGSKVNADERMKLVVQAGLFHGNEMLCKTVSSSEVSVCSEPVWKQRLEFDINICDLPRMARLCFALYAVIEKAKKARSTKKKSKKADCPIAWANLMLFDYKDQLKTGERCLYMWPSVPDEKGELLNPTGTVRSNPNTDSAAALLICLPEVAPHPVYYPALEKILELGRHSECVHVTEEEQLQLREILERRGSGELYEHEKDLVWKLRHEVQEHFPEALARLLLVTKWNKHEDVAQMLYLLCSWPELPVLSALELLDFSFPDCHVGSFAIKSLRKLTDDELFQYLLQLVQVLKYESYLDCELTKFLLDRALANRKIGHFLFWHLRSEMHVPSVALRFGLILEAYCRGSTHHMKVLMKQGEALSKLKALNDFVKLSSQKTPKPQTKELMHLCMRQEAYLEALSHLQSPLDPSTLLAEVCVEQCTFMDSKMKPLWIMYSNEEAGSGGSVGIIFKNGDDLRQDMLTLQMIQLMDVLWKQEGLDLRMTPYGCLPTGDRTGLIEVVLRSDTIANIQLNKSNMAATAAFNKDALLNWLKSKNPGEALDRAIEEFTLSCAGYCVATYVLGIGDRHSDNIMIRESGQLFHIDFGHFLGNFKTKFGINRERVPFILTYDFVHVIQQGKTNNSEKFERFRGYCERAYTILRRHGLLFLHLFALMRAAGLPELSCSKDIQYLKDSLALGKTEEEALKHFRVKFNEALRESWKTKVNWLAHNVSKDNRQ
T4 sequence (P27986 whole entry partner): as the sequence (P27986 whole entry partner) above

| IC50 (PI3Kα) [nM] | IC50 (PI3Kβ) [nM] | IC50 (PI3Kγ) [nM] | IC50 (PI3Kδ) [nM] | Structure (SMILES) |
| --- | --- | --- | --- | --- |
| > 1000 | 10 to 1000 | 10 to 1000 | 10 to 1000 | CC(Nc1ncnc(N)c1C#N)c1cc2ccccn2c1C#CCO (centres unmarked) [Example 46, 4-amino-6-({1-[3-(3-hydroxyprop-1-yn-1-yl)indolizin-2-yl]ethyl}amino)pyrimidine-5-carbonitrile] |
| > 1000 | > 1000 | > 1000 | > 1000 | Cc1ccccc1-c1c(Cn2cnc3c(N)ncnc32)cc2ccccn12 [Example 7, 9-{[3-(2-methylphenyl)indolizin-2-yl]methyl}-9H-purin-6-amine] |
| > 1000 | > 1000 | > 1000 | 10 to 1000 | N#Cc1c(N)ncnc1NCc1cn2ccccc2c1-c1cccc(F)c1 [Example 28, 4-amino-6-({[1-(3-fluorophenyl)indolizin-2-yl]methyl}amino)pyrimidine-5-carbonitrile] |
| > 1000 | > 1000 | 10 to 1000 | 10 to 1000 | CCC(Nc1ncnc(N)c1C#N)c1cc2ccccn2c1-c1ccccn1 (centres unmarked) [Example 44, 4-amino-6-({1-[3-(pyridin-2-yl)indolizin-2-yl]propyl}amino)pyrimidine-5-carbonitrile] |
| 10 to 1000 | 10 to 1000 | 10 to 1000 | < 10 | CC(c1cc2ccccn2c1-c1ccc(OCCN(C)C)nn1)n1nc(-c2cc(O)cc(F)c2)c2c(N)ncnc21 (centres unmarked) [Example 138, 3-{4-amino-1-[1-(3-{6-[2-(dimethylamino)-ethoxy]pyridazin-3-yl}indolizin-2-yl)-ethyl]-1H-pyrazolo[3,4-d]pyrimidin-3-yl}-5-fluorophenol] |
| 10 to 1000 | 10 to 1000 | > 1000 | < 10 | C[C@H](c1cc2ccccn2c1-c1ccc(CN(CCO)CCO)cn1)n1nc(-c2cc(O)cc(F)c2)c2c(N)ncnc21 (single isomer, unassigned) [Example 117b, 3-(4-amino-1-{1-[3-(5-{[bis(2-hydroxyethyl)amino]methyl}pyridin-2-yl)indolizin-2-yl]ethyl}-1H-pyrazolo[3,4-d]pyrimidin-3-yl)-5-fluorophenol] |
| > 1000 | 10 to 1000 | 10 to 1000 | 10 to 1000 | CC(Nc1ncnc(N)c1C#N)c1cc2ccccn2c1-c1cccnc1 (centres unmarked) [Example 34, 4-amino-6-({1-[3-(pyridin-3-yl)indolizin-2-yl]ethyl}amino)pyrimidine-5-carbonitrile] |
| > 1000 | > 1000 | > 1000 | 10 to 1000 | N#Cc1c(N)ncnc1NCc1cc2ccccn2c1 [Example 31, 4-amino-6-[(indolizin-2-ylmethyl)amino]pyrimidine-5-carbonitrile] |
| 10 to 1000 | 10 to 1000 | 10 to 1000 | < 10 | CC(c1cc2ccccn2c1-c1cc(CN(C)C)ccn1)n1nc(-c2cc(O)cc(F)c2)c2c(N)ncnc21 (centres unmarked) [Example 112, 3-{4-amino-1-[1-(3-{4-[(dimethylamino)-methyl]pyridin-2-yl}indolizin-2-yl)-ethyl]-1H-pyrazolo[3,4-d]pyrimidin-3-yl}-5-fluorophenol] |
| > 1000 | > 1000 | > 1000 | 10 to 1000 | CC(Nc1ncnc(N)c1C#N)c1cc2ccccn2c1-c1ccccc1 (centres unmarked) [Example 32, 4-amino-6-{[1-(3-phenylindolizin-2-yl)ethyl]amino}pyrimidine-5-carbonitrile] |
| > 1000 | 10 to 1000 | > 1000 | 10 to 1000 | CC(c1cc2ccccn2c1-c1ccc(OC2CCN(C)CC2)nn1)n1nc(-c2cc(O)cc(F)c2)c2c(N)ncnc21 (centres unmarked) [Example 139, 3-{4-amino-1-[1-(3-{6-[(1-methylpiperidin-4-yl)oxy]pyridazin-3-yl}indolizin-2-yl)ethyl]-1H-pyrazolo-[3,4-d]pyrimidin-3-yl}-5-fluorophenol] |
